# Calls of active or inactive are those of the source.
# Tests used:
# [1] = target: Dual specificity protein phosphatase 3 (Homo sapiens, UniProt P51452); assay: inhibition constants for human DUSP3 – biochemical, colorimetric, SAR follow-up (AID 2004)
# [2] = target: Melanin-concentrating hormone receptor 1 (Homo sapiens, UniProt Q99705); assay: Fluorescence-based counterscreen for antagonists of the G-protein coupled receptor 7 (GPR7): cell-based high throughput dose response assay to identify antagonists of the melanin-concentrating hormone receptor 1 (MCHR1).; format: functional
# [3] = target: Neurotensin receptor type 1 (Homo sapiens, UniProt P30989); format: functional;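 note: Image-based confirmatory dose-response assay measuring agonist activity at NTR1; NTR1-expressing U2OS osteosarcoma cells imaged for beta-arrestin GFP spot formation; agonist potency where compounds increase beta-arrestin recruitment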
# [4] = Luminescence Cell-Based Dose Retest to Confirm Inhibitors of Cancer Stem Cells. [Related pubchem assays (depositor defined):AID2717, AID2721]; format: functional; conditions: Homo sapiens
# Aminopeptidase N = Aminopeptidase N (Plasmodium falciparum FcB1/Columbia, UniProt O96935); assay: malaria alanyl aminopeptidase activity blockers – biochemical, fluorogenic H-Leu-NHMec substrate, 1536-well (AID 1445); set-up: species or system Plasmodium falciparum 3D7, 3D7
# Fatty acid synthase [5] = target: T1, Fatty acid synthase (Homo sapiens, UniProt P49327); assay: inhibition of human FAS-TE enzyme activity – biochemical, endpoint fluorescence intensity, uHTS hits, dose response (AID 624327); format: functional;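 note: fluorescence from hydrolysis of an O-methyl fluorescein acyl ester substrate by the enzyme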
# [6] = fluconazole-exposed Candida albicans growth modulators – fluorescence, retest, confirmation (AID 2467); format: functional, cell-based
# [7] = NIH-3T3 fibroblast cytotoxicity, dose response, cytotoxicity control, cell-based, fluorescence, Alamar Blue, secondary assay (AID 2327); format: functional;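 note: NIH-3T3 mouse fibroblasts cultured with fluconazole at 8 µg/mL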
# Fatty acid synthase [8] = target: T1, Fatty acid synthase; assay: inhibition of human FAS-TE enzyme activity – biochemical, kinetic fluorescence intensity, dose response (AID 624326); format: functional;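 note: rate of fluorescence rise from hydrolysis of a fluorogenic O-methyl fluorescein ester substrate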
# [9] = CCR5-tropic HIV-1 fusion blockers – cell-based, CCR5-tropic Env, dose response (AID 2279); format: functional
# [10] = antiviral protection against BTV-induced cell death – arbovirus, BSR cells, confirmation (AID 1250); format: functional;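 note: protection from viral cytopathic effect measured as cell viability by ATP luminescence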
# [11] = target: Cyclin-dependent kinase 5/CDK5 activator 1 (Homo sapiens, UniProt Q00535); assay: blockade of human CDK5 activity – biochemical, cherry-picked samples, set 2, dose response (AID 504545)
# [12] = target: T2, Heat shock 70 kDa protein 1A (Homo sapiens, UniProt P0DMV8); assay: small molecules displacing fluorescent ligand from Hsp70 – biochemical, fluorescence polarization, primary screen (AID 583)
# [13] = target: T3, Zinc finger protein mex-5 (Caenorhabditis elegans, UniProt Q9XUB2); assay: potency of MEX-5 RNA-binding blockers – biochemical, C. elegans, fluorescence polarization, dose response (AID 1960)
# T3 sequence (Q9XUB2 whole entry): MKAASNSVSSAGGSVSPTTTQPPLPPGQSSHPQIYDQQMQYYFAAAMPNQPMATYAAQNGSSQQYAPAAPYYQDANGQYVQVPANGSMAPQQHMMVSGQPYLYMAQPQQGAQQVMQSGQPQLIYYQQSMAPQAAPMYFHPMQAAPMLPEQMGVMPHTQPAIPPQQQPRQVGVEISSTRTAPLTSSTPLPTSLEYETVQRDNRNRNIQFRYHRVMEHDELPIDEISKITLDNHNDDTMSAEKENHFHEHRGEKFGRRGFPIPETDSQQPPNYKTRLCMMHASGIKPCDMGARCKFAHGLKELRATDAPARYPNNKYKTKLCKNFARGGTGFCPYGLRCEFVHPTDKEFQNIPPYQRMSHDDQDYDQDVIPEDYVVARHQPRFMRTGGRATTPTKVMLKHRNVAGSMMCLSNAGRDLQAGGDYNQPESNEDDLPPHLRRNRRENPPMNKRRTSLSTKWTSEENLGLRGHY
# Bcl-2-like protein 10 = Bcl-2-like protein 10 (Homo sapiens, UniProt Q9HD36); assay: Bcl-B/TR3 peptide binding disruption – biochemical, fluorescence polarization, FITC-TR3 peptide, selectivity assay for Bfl-1 inhibitor project, primary screen (AID 748);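 note: fluorescence polarization from a fluorescein-labelled TR3 peptide binding purified Bcl-B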
# [14] = target: Protein-tyrosine kinase 2-beta (Homo sapiens, UniProt Q14289);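 note: potency of inhibitors of PYK2 kinase phosphorylation of poly-GT substrate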
# [15] = target: T2, Heat shock 70 kDa protein 1A; assay: small-molecule inhibition of Hsp70 – biochemical, TR-FRET (AID 786)
# [16] = target: T4, RNA-binding protein pos-1 (Caenorhabditis elegans, UniProt G5EF15); assay: disruptors of C. elegans POS-1 RNA interaction – biochemical, fluorescence polarization, dose response (AID 1964);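 note: purified POS-1 fused to maltose binding protein made in E. coli; potency of compounds blocking POS-1 binding to fluorescent RNA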
# T4 sequence (G5EF15 whole entry): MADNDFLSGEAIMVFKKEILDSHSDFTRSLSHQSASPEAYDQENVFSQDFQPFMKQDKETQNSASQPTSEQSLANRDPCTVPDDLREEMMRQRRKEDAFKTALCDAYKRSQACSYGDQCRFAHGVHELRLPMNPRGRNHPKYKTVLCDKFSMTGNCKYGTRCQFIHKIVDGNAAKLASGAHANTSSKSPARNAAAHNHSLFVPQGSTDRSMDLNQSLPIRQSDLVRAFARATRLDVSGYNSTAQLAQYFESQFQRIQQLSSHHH
# HeLa = assay: viability loss in HeLa cells – cell-based, 24 h, cherry-picked samples, cytotoxicity control, dose response (AID 504726); format: functional; conditions: Homo sapiens;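 note: potency for cytotoxicity as loss of luminescence signal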
# [17] = target: DNA (cytosine-5)-methyltransferase 1 (Homo sapiens, UniProt P26358); assay: inhibition of DNA methylation by DNMT1 – biochemical, fluorescent molecular beacon, confirmation (AID 602386); format: functional
# cells [18] = format: functional, cell-based
# [19] = target: Mothers against decapentaplegic homolog 3 (Homo sapiens, UniProt P84022); assay: inhibitors of SMAD-driven TGF-beta signaling – dose response (AID 715); format: functional
# Ephrin type-A receptor 4 = Ephrin type-A receptor 4 (Mus musculus, UniProt Q03137); assay: EphA4 ligand-binding antagonists – biochemical, colorimetric, mouse EphA4, primary screen (AID 689); format: functional
# cells [20] = format: functional, cell-based; remark: listed apart in the source
# ORF 73 = ORF 73 (Human herpesvirus 8, UniProt O40947); assay: KSHV LANA DNA-binding disruption – biochemical, fluorescence polarization, cherry-picked samples, dose response (AID 504725); set-up: species or system Human gammaherpesvirus 8;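 note: fluorescence polarization of a labeled DNA duplex reporting LANA DNA binding; potency is for inhibitors that block LANA binding to the DNA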
# Estrogen receptor beta [21] = target: T5, Estrogen receptor beta (Homo sapiens, UniProt Q92731);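 note: recombinant ER-beta bound to coactivator SRC1 peptide in presence of estradiol agonist; inhibitors block coactivator peptide binding and lower the FRET signal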
# [22] = target: T6, Dual specificity protein phosphatase 6 (Rattus norvegicus, UniProt Q64346); assay: inhibition of rat DUSP6 enzyme activity – biochemical, in vitro, primary screen (AID 425)
# T6 sequence (Q64346 whole entry): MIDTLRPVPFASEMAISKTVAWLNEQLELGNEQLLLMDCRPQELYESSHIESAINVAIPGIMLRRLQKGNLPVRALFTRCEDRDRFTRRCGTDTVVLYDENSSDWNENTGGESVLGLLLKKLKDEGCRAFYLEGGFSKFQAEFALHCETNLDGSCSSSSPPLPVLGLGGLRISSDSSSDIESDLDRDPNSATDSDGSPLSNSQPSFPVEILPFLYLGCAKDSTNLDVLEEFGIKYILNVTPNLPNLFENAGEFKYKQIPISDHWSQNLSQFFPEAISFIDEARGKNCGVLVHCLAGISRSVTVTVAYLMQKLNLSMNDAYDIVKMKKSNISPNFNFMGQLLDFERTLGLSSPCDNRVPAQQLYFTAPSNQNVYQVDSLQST
# [23] = target: Bifunctional protein GlmU (Mycobacterium tuberculosis, UniProt P9WMN3); assay: Inhibitors of Mycobacterial Glucosamine-1-phosphate acetyl transferase (GlmU). Secondary screen.; set-up: species or system Mycobacterium tuberculosis H37Rv
# Cytochrome P450 2C9 = Cytochrome P450 2C9 (Homo sapiens, UniProt P11712)
# [24] = target: T7, Trace amine-associated receptor 1 (Homo sapiens, UniProt Q96RJ0); assay: Fluorescence-based cell-based high throughput dose response assay to identify agonists of the human trace amine associated receptor 1 (TAAR1).; format: functional
# T7 sequence (Q96RJ0 whole entry): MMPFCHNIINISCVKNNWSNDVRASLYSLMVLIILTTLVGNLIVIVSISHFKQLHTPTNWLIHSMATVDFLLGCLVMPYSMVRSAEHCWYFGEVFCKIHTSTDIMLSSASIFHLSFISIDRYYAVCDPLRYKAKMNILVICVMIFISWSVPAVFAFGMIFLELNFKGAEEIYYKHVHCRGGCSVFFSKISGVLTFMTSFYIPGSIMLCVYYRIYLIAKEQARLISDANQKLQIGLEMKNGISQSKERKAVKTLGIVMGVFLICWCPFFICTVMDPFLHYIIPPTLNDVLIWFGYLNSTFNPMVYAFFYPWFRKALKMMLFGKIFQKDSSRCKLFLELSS
# Estrogen receptor beta [25] = target: T5, Estrogen receptor beta; assay: blockers of SRC-3 recruitment to ERβ – biochemical, ELISA, streptavidin-HRP readout, orthogonal assay, confirmation (AID 1060)
# [26] = target: T7, Trace amine-associated receptor 1; assay: Counterscreen for agonists of the human trace amine associated receptor 1 (hTAAR1): Fluorescence-based cell-based high throughput dose response assay to identify hTAAR1 agonist that also desensitize TAAR1 receptor response.; format: functional
# [27] = target: T8, Eukaryotic translation initiation factor 2-alpha kinase 3 (Homo sapiens, UniProt Q9NZJ5); assay: Counterscreen assay for PERK inhibitors: Dose response cell-based high throughput screening assay to measure inhibition of PERK at 6 hours. [Related pubchem assays: 1522, 1416 ]; format: functional
# [28] = target: T8, Eukaryotic translation initiation factor 2-alpha kinase 3; assay: Dose response cell-based high-throughput screening assay to measure PERK inhibition. [Related pubchem assays: 1416 ]; format: functional
# Leucine aminopeptidase = target: T9, Leucine aminopeptidase (Plasmodium falciparum 3D7, UniProt Q8IL11); assay: P. falciparum M17LAP inhibitors, primary screen, biochemical, fluorogenic H-Leu-NHMec substrate, 1536-well (AID 1619); format: functional
# T9 sequence (Q8IL11 whole entry): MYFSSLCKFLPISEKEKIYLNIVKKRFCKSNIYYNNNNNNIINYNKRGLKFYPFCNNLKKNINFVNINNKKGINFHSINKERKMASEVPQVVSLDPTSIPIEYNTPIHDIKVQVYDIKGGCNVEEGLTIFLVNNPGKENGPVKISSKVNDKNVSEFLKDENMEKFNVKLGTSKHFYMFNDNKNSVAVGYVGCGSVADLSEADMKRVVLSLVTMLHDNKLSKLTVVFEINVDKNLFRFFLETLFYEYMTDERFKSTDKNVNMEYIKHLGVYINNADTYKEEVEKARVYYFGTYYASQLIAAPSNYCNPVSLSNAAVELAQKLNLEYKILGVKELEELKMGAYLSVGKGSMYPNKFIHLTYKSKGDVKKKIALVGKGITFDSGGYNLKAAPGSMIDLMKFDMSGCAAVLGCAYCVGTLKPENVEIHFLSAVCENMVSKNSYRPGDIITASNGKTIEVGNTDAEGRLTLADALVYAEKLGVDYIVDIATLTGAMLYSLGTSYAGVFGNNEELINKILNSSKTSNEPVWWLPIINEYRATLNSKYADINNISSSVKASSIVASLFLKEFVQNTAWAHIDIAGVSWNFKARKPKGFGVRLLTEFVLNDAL
# [29] = Cytotoxicity screening for potential Inhibitors of Bacterial Capsule Biogenesis. [Related pubchem assays (depositor defined):AID488970]; format: functional
# [30] = target: T10, Voltage-gated N-type calcium channel alpha-1B subunit/Amyloid beta A4 precursor protein-binding family A member 1 (Homo sapiens, UniProt Q00975+Q02410); assay: disruptors of Mint-PDZ/N-type channel peptide interaction – biochemical, HTRF, SAR follow-up (AID 2489); format: functional
# [31] = target: T10, Voltage-gated N-type calcium channel alpha-1B subunit/Amyloid beta A4 precursor protein-binding family A member 1; assay: disruptors of Mint-PDZ/N-type channel peptide interaction – biochemical, HTRF, set 2, SAR follow-up (AID 434980); format: functional
# T1 sequence (P49327 whole entry): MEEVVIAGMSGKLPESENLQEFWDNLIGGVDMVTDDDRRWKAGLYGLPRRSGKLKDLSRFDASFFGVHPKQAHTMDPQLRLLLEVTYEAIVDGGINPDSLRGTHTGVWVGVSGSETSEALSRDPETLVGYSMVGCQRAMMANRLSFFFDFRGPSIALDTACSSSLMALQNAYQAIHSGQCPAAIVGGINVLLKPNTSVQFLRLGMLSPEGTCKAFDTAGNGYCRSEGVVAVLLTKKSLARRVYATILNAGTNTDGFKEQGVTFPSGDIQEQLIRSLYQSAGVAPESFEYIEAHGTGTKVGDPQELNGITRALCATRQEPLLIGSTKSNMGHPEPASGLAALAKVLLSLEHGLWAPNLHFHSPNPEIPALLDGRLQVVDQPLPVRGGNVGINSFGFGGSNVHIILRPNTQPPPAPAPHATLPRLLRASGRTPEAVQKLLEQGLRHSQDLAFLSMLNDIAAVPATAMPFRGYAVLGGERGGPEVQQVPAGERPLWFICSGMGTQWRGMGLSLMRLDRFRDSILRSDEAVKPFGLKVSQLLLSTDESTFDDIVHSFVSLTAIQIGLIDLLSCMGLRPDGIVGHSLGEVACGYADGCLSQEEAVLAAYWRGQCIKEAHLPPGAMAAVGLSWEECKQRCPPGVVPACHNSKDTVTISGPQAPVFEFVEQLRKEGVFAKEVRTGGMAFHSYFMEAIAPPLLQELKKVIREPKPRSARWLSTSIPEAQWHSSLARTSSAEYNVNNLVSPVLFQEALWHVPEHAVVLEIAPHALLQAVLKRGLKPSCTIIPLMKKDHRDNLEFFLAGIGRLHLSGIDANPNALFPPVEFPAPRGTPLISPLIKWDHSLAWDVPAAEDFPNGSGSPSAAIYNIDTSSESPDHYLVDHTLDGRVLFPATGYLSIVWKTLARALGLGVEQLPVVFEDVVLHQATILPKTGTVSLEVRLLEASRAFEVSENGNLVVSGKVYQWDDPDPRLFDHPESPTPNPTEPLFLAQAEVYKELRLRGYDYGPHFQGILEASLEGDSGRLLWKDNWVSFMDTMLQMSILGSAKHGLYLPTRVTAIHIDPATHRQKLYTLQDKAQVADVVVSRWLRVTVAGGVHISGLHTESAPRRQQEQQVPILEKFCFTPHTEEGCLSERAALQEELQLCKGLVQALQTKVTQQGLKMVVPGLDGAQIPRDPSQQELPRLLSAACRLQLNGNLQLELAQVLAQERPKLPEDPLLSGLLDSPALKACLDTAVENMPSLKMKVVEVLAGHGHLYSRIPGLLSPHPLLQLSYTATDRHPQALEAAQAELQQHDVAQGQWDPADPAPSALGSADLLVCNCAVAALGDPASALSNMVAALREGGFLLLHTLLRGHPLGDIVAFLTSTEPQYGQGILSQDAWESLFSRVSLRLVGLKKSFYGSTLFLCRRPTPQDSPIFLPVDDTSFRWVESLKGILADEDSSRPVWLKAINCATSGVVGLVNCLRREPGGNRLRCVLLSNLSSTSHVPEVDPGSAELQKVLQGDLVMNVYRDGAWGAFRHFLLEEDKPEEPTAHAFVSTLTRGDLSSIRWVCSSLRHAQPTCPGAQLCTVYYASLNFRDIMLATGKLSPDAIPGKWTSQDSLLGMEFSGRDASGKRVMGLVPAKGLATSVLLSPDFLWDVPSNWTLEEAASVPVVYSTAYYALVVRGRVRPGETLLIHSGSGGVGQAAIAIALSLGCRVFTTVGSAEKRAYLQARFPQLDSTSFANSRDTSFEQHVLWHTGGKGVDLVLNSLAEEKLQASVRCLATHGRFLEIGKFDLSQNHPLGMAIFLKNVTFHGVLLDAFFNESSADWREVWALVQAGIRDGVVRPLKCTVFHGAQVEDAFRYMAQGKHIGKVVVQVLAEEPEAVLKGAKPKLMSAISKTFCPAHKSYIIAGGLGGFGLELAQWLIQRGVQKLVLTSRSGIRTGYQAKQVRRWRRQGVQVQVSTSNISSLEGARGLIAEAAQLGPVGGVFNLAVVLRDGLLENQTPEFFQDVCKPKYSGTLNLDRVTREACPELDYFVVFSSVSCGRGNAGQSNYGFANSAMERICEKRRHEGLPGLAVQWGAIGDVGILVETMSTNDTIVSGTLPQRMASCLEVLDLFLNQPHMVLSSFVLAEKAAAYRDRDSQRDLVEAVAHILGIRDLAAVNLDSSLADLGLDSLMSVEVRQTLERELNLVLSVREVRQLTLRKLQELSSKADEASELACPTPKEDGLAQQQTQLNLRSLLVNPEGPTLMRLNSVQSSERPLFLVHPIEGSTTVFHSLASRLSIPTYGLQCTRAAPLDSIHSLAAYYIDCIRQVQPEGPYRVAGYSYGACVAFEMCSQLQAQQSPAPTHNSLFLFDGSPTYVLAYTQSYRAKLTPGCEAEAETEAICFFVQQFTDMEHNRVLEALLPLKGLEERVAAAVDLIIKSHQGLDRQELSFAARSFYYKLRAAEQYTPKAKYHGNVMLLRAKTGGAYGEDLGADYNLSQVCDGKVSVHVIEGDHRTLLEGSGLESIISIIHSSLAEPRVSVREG
# T2 sequence (P0DMV8 whole entry): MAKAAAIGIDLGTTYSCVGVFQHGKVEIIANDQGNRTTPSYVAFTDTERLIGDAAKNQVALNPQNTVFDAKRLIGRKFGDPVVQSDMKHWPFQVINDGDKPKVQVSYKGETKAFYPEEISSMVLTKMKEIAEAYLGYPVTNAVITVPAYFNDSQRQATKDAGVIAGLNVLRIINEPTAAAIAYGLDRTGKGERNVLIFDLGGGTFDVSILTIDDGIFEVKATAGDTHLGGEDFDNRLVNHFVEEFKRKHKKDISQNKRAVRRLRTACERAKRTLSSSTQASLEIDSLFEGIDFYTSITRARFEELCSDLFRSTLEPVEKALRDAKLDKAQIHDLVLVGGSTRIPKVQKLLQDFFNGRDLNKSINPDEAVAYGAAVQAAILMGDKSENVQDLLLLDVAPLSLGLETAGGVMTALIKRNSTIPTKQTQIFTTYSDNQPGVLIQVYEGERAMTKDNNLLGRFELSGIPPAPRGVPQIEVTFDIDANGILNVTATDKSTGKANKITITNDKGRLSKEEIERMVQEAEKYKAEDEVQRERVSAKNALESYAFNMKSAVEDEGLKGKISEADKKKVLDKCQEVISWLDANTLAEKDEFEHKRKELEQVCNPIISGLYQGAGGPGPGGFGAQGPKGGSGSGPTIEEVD
# T5 sequence (Q92731 whole entry): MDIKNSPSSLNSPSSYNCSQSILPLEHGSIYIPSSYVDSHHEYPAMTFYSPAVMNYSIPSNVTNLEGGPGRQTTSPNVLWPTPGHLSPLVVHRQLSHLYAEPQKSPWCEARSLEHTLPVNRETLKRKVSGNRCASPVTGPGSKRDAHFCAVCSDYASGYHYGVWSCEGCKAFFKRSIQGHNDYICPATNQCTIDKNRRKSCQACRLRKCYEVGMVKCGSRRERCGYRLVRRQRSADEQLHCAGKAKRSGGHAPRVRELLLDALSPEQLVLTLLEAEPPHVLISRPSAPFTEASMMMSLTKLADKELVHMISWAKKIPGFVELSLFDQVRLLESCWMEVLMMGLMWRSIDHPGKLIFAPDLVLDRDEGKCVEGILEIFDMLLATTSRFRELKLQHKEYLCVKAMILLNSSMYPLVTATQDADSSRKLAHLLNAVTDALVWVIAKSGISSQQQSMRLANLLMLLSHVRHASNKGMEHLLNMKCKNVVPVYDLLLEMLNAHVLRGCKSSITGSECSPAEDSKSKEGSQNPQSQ
# T8 sequence (Q9NZJ5 whole entry): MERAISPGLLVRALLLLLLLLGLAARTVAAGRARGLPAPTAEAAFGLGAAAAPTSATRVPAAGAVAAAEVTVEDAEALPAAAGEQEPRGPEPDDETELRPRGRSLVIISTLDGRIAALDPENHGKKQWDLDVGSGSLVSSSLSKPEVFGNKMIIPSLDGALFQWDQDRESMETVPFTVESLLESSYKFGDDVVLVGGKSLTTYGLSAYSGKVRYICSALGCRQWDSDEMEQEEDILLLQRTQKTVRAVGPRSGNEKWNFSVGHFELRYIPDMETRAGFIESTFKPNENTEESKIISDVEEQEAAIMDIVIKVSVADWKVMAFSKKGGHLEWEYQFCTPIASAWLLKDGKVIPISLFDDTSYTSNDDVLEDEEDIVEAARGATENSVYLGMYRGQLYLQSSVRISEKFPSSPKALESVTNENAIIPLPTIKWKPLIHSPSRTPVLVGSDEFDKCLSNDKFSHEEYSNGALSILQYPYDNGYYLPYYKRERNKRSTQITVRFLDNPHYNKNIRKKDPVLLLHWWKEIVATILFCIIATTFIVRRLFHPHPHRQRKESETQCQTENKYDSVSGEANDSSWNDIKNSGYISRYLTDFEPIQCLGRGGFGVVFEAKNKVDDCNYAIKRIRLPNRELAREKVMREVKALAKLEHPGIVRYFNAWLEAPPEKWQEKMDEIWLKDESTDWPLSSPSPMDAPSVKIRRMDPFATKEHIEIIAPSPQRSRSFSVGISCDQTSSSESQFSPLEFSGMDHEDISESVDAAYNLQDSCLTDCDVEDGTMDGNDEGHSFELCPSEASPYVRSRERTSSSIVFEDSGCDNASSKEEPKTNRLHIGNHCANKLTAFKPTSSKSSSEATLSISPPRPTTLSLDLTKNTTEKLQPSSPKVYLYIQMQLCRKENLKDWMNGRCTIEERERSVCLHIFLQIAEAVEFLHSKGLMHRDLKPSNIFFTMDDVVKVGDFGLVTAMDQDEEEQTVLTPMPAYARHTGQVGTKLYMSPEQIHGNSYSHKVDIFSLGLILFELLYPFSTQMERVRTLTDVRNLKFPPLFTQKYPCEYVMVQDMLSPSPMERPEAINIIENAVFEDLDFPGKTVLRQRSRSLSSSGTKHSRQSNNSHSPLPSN
# Bcl-2-like protein 10, sequence (Q9HD36 whole entry): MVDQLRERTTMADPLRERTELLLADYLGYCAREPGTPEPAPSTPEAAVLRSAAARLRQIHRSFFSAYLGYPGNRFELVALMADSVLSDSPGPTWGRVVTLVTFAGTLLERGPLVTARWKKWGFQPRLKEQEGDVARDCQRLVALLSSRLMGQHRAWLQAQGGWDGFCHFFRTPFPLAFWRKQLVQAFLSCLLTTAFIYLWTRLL
smiles,measurement,setting,value
Cc1ccc(-c2ccccc2)n1-c1ccc(O)c(C(=O)O)c1,Ki,[1],80.3 µM (inactive)
N=C(N)NS(=O)(=O)c1ccc(NC(=S)NC(=O)Cc2ccc(Cl)cc2)cc1,IC50,[2],21.8 µM (not active)
CC(C)CN1C(=O)/C(=C/c2c[nH]nc2-c2ccccc2)SC1=S,EC50,[3],15 µM (active)
same,AC50,[4],2.59 µM (active)
COc1cc(/C=C(\C#N)c2nc3ccccc3s2)cc([N+](=O)[O-])c1O,IC50,Aminopeptidase N,11 µM (active)
same,IC50,Fatty acid synthase [5],12.4 µM (active)
same,EC50,[6],> 38 µM (not active)
same,EC50,[7],> 150 µM (inactive)
same,IC50,Fatty acid synthase [8],10 µM (active)
same,IC50,[9],> 50 µM (active)
same,IC50,[10],33.7 µM (active)
CCC(C)(C)C1CCc2n[nH]c(C(=O)NCCN3CCOCC3)c2C1 (stereo not drawn),AC50,[11],20.9 µM (active)
CC1(C)CCCN(C(=O)c2coc(=O)c(Br)c2)C1,IC50,[12],13.1 µM (active)
same,EC50,[13],68.3 µM (active)
same,IC50,Bcl-2-like protein 10,6.54 µM (active)
same,IC50,[14],5.23 µM (active)
same,IC50,[15],8.32 µM (active)
same,EC50,[16],> 300 µM (not active)
same,AC50,HeLa,96.3 µM (active)
same,IC50,[17],2.92 µM (active)
same,EC50,cells [18],> 29.9 µM (inactive)
same,IC50,[19],14 µM (active)
same,IC50,Ephrin type-A receptor 4,8.98 µM (active)
same,IC50,cells [20],> 29.9 µM (inactive)
same,AC50,ORF 73,71.2 µM (active)
same,IC50,Estrogen receptor beta [21],< 1.56 µM (active)
same,IC50,[22],> 10 µM (not active)
same,IC50,[23],21.2 µM (active)
same,AC50,Cytochrome P450 2C9,28.2 µM (inconclusive)
same,EC50,[24],0.827 µM (active)
same,IC50,Estrogen receptor beta [25],93.2 µM (not active)
same,IC50,[26],2.41 µM (active)
CC(C)C(=O)NNc1ccc(C(F)(F)F)cn1,EC50,[27],> 55.7 µM (not active)
same,EC50,[28],> 55.7 µM (not active)
CC1(C(=O)O)CCC(C(=O)Nc2ccc3ccccc3c2)C1(C)C (stereo not drawn),IC50,Leucine aminopeptidase,12.5 µM (active)
same,CC50,[29],> 100 µM (active)
O=C(NCCc1ccncc1)c1cc(-c2ccco2)nc2ccccc12,IC50,[30],> 56.8 µM (inactive)
same,IC50,[31],> 56.8 µM (inactive)

# Reference: ChEMBL document CHEMBL1201862, “PubChem BioAssay data set” (2004)
